From paper PMC11233931, “Remodeling tumor‐associated macrophage for anti‐cancer effects by rational design of irreversible inhibition of mitogen‐activated protein kinase‐activated protein kinase 2” (MedComm, 2024)

What was measured:
[1] = system: MRC1 and ARG-1 mRNA in THP-1 monocyte induced macrophages; test: RT-PCR of M2 markers in IL-4/IL-13 stimulated THP-1 macrophages; type: cell-based, human; settings: IL-4/IL-13 20 ng/mL
Description: A previous study has reported that MK2 fostered M2‐like polarization of TAMs, driving a protumor and proangiogenic phenotype which in turn accelerates tumor progression.[21] We thus assessed the influence of compound 11 on macrophage polarization and function. Our experiments used human THP‐1 monocyte induced macrophages, mouse RAW264.7 macrophages, and mouse bone marrow‐derived macrophages (BMDM). These cells were induced into M2‐like macrophages using the classic IL‐4 and IL‐13 stimuli.
FIGURE 5 Inhibition of pro‐tumorigenic M2‐like polarization in macrophages by compound 11. (A–C) RT‐PCR analysis highlights the impact of compound 11 on MRC1 and ARG‐1 mRNA expression in various macrophage cells treated with IL‐4/IL‐13 alone or combined with compound 11 for 12 h or 24 h. […] Data are shown as the mean ± SD. ^* p < 0.05; ^*** p < 0.001 versus the vehicle group, determined by unpaired t test. […]
Total RNA was extracted from cultured cells using the EZ‐press RNA Purification Kit (EZBioscience). Complementary DNA was synthesized using the ABScript III RT Master Mix for qPCR with gDNA remover (ABclonal Technology) and was quantified with primers listed in Table S5. The relative mRNA expression levels were quantified through qPCR using the SYBR green gene expression assay (ABclonal Technology).

[2] = biological target: T1, 380 human recombinant protein kinases (Homo sapiens, UniProt Q99759); test: Eurofins kinase selectivity profile against 380 other human recombinant kinases (Table S2); type: biochemical; settings: MEKK3(h), read-out: Inhibition rate
T1 construct: purchased Eurofins (Celle Lévescault)
T1 sequence (Q99759 1-626): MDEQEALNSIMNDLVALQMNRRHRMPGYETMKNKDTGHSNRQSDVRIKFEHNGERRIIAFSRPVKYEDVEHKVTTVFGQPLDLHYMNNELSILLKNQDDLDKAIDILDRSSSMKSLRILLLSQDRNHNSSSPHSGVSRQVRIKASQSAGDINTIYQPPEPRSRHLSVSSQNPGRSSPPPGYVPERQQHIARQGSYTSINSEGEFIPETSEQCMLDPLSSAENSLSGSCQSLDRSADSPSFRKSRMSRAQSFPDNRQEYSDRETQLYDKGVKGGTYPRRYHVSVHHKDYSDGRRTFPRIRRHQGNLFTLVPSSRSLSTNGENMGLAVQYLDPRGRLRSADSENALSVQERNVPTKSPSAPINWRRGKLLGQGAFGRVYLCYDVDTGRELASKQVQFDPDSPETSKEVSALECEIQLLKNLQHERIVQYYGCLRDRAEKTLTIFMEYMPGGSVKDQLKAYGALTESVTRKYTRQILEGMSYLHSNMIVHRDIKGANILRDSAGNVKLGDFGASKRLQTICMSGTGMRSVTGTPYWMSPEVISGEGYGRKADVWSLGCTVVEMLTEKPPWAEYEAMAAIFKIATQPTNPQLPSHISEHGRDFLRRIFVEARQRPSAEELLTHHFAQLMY
Method in brief: (§1)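 Off-target profiling: one compound assayed by a commercial provider over 380 recombinant human protein kinases at various concentrations.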

[3] = biological target: T2, 380 human recombinant protein kinases (Homo sapiens, UniProt P51617); test: as above; type: biochemical; settings: IRAK1(h), read-out: Inhibition rate
T2 construct: purchased Eurofins (Celle Lévescault)
Method in brief: as §1

[4] = biological target: T3, 380 human recombinant protein kinases (Homo sapiens, UniProt Q8NE63); test: as above; type: biochemical; settings: HIPK4(h), read-out: Inhibition rate
T3 construct: purchased Eurofins (Celle Lévescault)
T3 sequence (Q8NE63 1-616): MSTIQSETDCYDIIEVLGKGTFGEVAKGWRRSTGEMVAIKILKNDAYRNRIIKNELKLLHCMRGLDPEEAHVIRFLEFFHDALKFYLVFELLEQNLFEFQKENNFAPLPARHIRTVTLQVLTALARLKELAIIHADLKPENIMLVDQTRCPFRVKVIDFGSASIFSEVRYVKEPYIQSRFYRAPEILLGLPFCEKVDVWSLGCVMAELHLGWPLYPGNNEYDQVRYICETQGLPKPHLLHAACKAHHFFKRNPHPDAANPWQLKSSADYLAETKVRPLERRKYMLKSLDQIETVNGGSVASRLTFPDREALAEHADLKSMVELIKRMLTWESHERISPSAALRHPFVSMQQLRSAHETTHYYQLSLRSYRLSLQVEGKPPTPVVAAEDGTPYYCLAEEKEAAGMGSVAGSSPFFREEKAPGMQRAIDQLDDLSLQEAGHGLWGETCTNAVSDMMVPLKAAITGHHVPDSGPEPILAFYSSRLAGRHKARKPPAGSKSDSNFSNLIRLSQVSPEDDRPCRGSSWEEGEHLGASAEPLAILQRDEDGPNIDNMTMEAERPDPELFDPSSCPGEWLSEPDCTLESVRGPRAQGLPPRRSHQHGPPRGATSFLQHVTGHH
Method in brief: as §1

[5] = biological target: T4, 380 human recombinant protein kinases (Homo sapiens, UniProt P78362); test: as above; type: biochemical; settings: SRPK2(h), read-out: Inhibition rate (%)
T4 construct: purchased Eurofins (Celle Lévescault)
Method in brief: as §1

T2 sequence (P51617 whole entry): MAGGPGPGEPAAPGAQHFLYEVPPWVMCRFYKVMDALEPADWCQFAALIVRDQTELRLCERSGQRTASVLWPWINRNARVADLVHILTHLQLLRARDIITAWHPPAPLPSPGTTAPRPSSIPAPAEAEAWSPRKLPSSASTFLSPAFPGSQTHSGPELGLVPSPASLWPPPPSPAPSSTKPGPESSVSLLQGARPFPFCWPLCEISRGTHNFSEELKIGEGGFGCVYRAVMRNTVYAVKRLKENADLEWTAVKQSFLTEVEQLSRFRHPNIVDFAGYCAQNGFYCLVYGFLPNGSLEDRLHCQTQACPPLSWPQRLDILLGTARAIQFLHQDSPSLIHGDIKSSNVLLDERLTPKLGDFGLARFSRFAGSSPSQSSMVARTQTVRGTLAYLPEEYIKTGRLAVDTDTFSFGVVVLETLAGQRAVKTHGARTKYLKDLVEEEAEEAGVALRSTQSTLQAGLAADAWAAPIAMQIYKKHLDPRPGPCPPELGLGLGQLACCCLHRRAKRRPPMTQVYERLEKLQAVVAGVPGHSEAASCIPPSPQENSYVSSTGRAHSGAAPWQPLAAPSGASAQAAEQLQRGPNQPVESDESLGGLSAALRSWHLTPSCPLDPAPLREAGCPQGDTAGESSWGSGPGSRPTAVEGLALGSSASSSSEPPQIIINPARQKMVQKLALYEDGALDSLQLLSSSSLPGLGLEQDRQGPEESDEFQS
T4 sequence (P78362 whole entry): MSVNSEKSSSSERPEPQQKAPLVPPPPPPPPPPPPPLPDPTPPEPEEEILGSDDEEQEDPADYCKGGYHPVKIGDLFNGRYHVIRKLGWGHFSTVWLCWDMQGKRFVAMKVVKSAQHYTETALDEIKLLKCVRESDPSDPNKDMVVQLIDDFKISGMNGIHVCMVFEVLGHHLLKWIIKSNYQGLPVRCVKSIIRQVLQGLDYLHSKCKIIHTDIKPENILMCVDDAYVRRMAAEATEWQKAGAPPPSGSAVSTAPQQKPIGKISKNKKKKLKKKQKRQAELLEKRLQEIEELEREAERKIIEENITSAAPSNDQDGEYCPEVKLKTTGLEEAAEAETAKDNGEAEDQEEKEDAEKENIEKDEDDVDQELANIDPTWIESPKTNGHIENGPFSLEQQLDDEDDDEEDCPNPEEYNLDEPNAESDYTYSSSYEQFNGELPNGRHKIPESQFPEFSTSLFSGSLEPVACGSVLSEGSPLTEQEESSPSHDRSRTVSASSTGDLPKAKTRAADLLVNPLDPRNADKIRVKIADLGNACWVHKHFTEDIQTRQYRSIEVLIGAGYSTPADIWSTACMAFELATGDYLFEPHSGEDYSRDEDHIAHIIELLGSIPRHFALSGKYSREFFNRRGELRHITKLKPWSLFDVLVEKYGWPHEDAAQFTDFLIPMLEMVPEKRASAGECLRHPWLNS

Q: With `C=CC(=O)Nc1cc(-c2cc(-c3cc4c([nH]3)CCNC4=O)ccn2)ccc1OC(F)(F)F` [compound 11] as the compound, how does the “effect on transcriptional level of MRC1 and ARG-1” value [1] read?
A: significantly suppressed

Q: What about the inhibition at 0.01 µM ([2]; 10 nM) of the same compound?
A: -5%

Q: What about the inhibition at 0.1 µM ([2]; 100 nM) of the same compound?
A: 11%

Q: And the inhibition at 1 µM ([2]; 1000 nM)?
A: 12%

Q: And the inhibition at 0.01 µM ([3]; 10 nM)?
A: -1%

Q: And the inhibition at 0.1 µM ([3]; 100 nM)?
A: 3%

Q: What about the inhibition at 1 µM ([3]; 1000 nM) of the same compound?
A: 34%

Q: What about the inhibition at 0.01 µM ([4]; 10 nM) of the same compound?
A: -23%

Q: What about the inhibition at 0.1 µM ([4]; 100 nM) of the same compound?
A: -10%

Q: What about the inhibition at 1 µM ([4]; 1000 nM) of the same compound?
A: 23%

Q: What about the inhibition at 0.01 µM ([5]; 10 nM) of the same compound?
A: 7%

Q: And the inhibition at 0.1 µM ([5]; 100 nM)?
A: -1%

Q: What about the inhibition at 1 µM ([5]; 1000 nM) of the same compound?
A: 6%
